Entries after “also recorded” stand apart in the source; their conditions may differ.
Tests used:
[1] = tested on: E2 stimulation on ERE transcriptional activity in MCF-7 cells; assay: ERE luciferase reporter gene assay in the presence of 0.1 nM E2, antiestrogenic activity; type: cell-based; settings: for inhibition at 25 µM: Homo sapiens, MCF7, 25 μM (highest concentration) plus 0.1 nM E2, read-out: reduction of estradiol-dependent luciferase activity
Procedure: MCF-7 cells were transiently transfected with pGL2-ERE2x-TK-luciferase plasmid. […] The luciferase activities of the treated cells were then measured by the ERE reporter gene assay.

[2] = tested on: progesterone receptor (PgR) gene expression in MCF-7 cells; assay: PgR mRNA expression by quantitative real time RT-PCR; type: cell-based; settings: for level of PgR expression: ligand in the presence of 0.1 nM E2, MCF-7 (E2 alone 5-fold); for increase in PgR expression compared with control: ligands only, vs DMSO
Source text: Total RNA was isolated from MCF-7 cells, reverse-transcribed into cDNA and subjected to real-time RT-PCR analysis for quantification. […] Results are expressed as the mean unit±SEM.

[3] = tested on: MCF-7 cells; assay: clonogenic (colony) assay; type: cell-based
Procedure: MCF-7 cells were placed in phenol red-free DMEM supplemented with 5% dextran-coated charcoal-treated FBS for 48 h before plating. MCF-7 cells (1000) were plated in six well plates. […] Colonies of >50 cells were counted as positive. Results are normalized to percentage of clonogenic survival from DMSO control cells.

[4] = tested on: ERE transcriptional activity in MCF-7 cells; assay: ERE luciferase reporter gene assay, estrogenic activity; type: cell-based; settings: for ERE transcriptional activity induced: 25 μM; for estrogenic (ERE) activity, in words: MCF-7, compound alone
Procedure: MCF-7 cells were transiently transfected with pGL2-ERE2x-TK-luciferase plasmid. […] While this order varied slightly as analog concentrations were increased further to 25 μM, several trends have emerged in the dose-dependent data. […] Second, shorter alkyl groups appear to have less effect on the reduction of ER agonist activity than their longer, bulkier counterparts.

[5] = tested on: MCF-7 cell tumorigenesis; assay: estrogen stimulated MCF-7 cell tumorigenesis xenograft model; type: in vivo, Nu/Nu mice; settings: day 37 post cell injection; mean±SEM; control 351.17±43.88
Procedure: 4-6 week old ovariectomized female Nu/Nu mice were injected bilaterally in the mammary fat pad (MFP) with 5×10^6 MCF-7 cells in matrigel (reduced factor). […] Tumors were allowed to form and at day 15 post cell injection mice were randomized into groups (n=5). Animals were treated daily with i.p. injections of either vehicle (1:5 DMSO/PBS) or analog 2 (50 mg/kg/animal). Tamoxifen animals were implanted with a slow release tamoxifen pellet in the lateral area of the neck (opposite side from E2 pellet). ICI animals were given a onetime i.p. injection of ICI 182,780 (5 mg in castor oil). Tumor size was measured 3 times weekly using digital calipers. Data represented as mean tumor volume±SEM.
Due to the anti-estrogenic effects of analog 2 on MCF-7 cells observed in the in vitro biological assays, this analog was selected for further testing of estrogen stimulated MCF-7 cell tumorigenesis using a xenograft model. Ovariectomized female immunocompromised mice were injected with MCF-7 cells and supplemented with exogenous estrogen pellets. Once tumors were palpable animals were treated with analog 2, tamoxifen, or ICI and tumor volume compared to vehicle control animals.
Xenograft experiments were conducted using previously published protocols. Briefly, 4-6 week old female ovariectomized NU/Nu mice were obtained from Charles River Laboratories (Wilmington, Mass.). The animals were allowed a period of adaptation in a sterile and pathogen-free environment with phytoestrogen-free food and water ad libitum. MCF-7 cells were harvested in the exponential growth phase using a PBS/EDTA solution and washed. Mice were injected bilaterally in the mammary fat pad (M.F.P) with 5×10^6 viable cells suspended in 50 μL sterile PBS mixed with 100 μL Matrigel (reduced factor; BD Biosciences, Bedford, Mass.). […] All procedures in animals were carried out under anesthesia using a mix of isofluorane and oxygen delivered by mask. […] Tumor size was measured 3 times weekly using digital calipers. The volume of the tumor was calculated using the following formula: 4/3 πLS^2 (L=larger radius; S=shorter radius). […]

[6] = tested on: MDA-MB-231 cells; assay: MDA-MB-231 xenograft tumor volume; type: in vivo, CB-17/SCID mice
Procedure: 4-6 week old female CB-17/SCID mice were allowed a period of adaptation in a sterile and pathogen-free environment with phytoestrogen-free food and water ad libitum. MDA-MB-231 cells were harvested in the exponential growth phase using a PBS/EDTA solution and washed. Mice were injected bilaterally in the mammary fat pad (MFP) with 5×10^6 viable cells suspended in 50 μL sterile PBS mixed with 100 μL Matrigel (reduced factor; BD Biosciences, Bedford, Mass.). Tumors were allowed to form, and at day 4 post cell injection mice were randomized into groups of 5 mice each. Mice were treated daily with intra-peritoneal (IP) injections of either vehicle (DMSO) or analog 2 (50 mg/kg/animal/day) for 14 days. External tumor size was measured using digital calipers and tumor volume calculated using the formula: 4/3 π LS^2 (L=larger radius; S=shorter radius). At necropsy, animals were euthanized by cervical dislocation after exposure to CO2. […] This trend continued until the mice were euthanized at day 18, where tumor volume for control mice averaged 188±18.78 mm^3 and the tumor volume for mice treated with analog 2 averaged 91.11±10.15 mm^3.

[7] = tested on: AKT and mTOR phosphorylation in MDA-MB-231 cells; assay: immunoblot of phospho-AKT and mTOR; type: cell-based
Procedure: The effects of analog 2 on TNBC may be mediated via alterations in the PI3K/AKT/mTOR pathway. After 72 hours in 5% charcoal-stripped fetal bovine serum (CSFBS) DMEM phenol-free medium, MDA-MB-231 cells were re-fed with either medium-containing vehicle, analog 2 (10 μM, 4 hours), analog 2 (4 hours) followed by EGF stimulation (50 ng/mL, 30 minutes), or EGF alone (30 minutes). Membranes were probed with primary antibodies according to manufacturers' protocol. Antibodies: phosho-AKT (S473 and T308), mTOR ([…]), and corresponding total protein antibodies (Cell Signaling), using rho as a loading control (Santa Cruz).

[8] = tested on: MDA-MB-157; assay: transwell migration assay; type: cell-based; settings: 10 μM, 24 hours
Procedure: (§1) TNBC cells were seeded (2.5×10^4 in 500 μl 10% DMEM) in the upper chamber of a 24 well transwell system. DMEM supplemented with FBS (10%) was used as a chemoattractant in the lower wells. After 24 hours of treatment (DMSO or analog 2 10 μM), membranes were scrubbed, stained with 0.1% crystal violet, and the number of migrated cells analyzed by microscopy. Data represented as normalized means of triplicate experiments±SEM. […] The TNBC phenotype is characterized by highly aggressive and migratory cells. The ability of analog 2 to inhibit this migration indicates its potential as a novel anti-metastatic therapeutic in the triple-negative breast carcinoma setting.

[9] = tested on: BT-549; assay: transwell migration assay; type: cell-based; settings: 10 μM, 24 hours
Procedure: as §1

[10] = tested on: MDA-MB-231; assay: transwell migration assay; type: cell-based; settings: 10 μM, 24 hours
Procedure: as §1

In the case of COc1ccc2c(=O)c(-c3ccc(O)cc3)coc2c1 [3a, 3-(4-Hydroxyphenyl)-7-methoxychromen-4-one], the inhibition at 25 µM [1] is reported as less than 47%, the “level of PgR expression” value [2] is reported as 4 fold and the “increase in PgR expression compared with control” value (from here on “increase in PgR expression”) ([2]; MCF-7) is reported as 3 fold. For the same compound, the “increase of cell proliferation (clonogenicity)” value ([3]; 1 μM, without E2, vs DMSO) was 43%, the “increase in clonogenicity of MCF-7 cells” value ([3]; 10 μM, without E2, vs DMSO) was 24% and the ERE activity ([4]; 10 μM, MCF-7, normalized to E2 (100)) was 38%. The “ERE transcriptional activity induced” value ([4]; MCF-7, normalized to E2 (100)) was 70.9%.
In the case of CCOc1ccc2c(=O)c(-c3ccc(O)cc3)coc2c1 [3b, 3-(4-Hydroxyphenyl)-7-ethoxychromen-4-one], the inhibition at 25 µM [1] is reported as less than 47% and the “ERE transcriptional activity induced” value ([4]; MCF-7, normalized to E2 (100)) is reported as 80.4%.
CCCOc1ccc2c(=O)c(-c3ccc(O)cc3)coc2c1 [3c, 3-(4-Hydroxyphenyl)-7-propoxychromen-4-one] was tested, and the inhibition at 25 µM [1] was less than 47% and the “ERE transcriptional activity induced” value ([4]; MCF-7, normalized to E2 (100)) was 38.4%.
CC(C)Oc1ccc2c(=O)c(-c3ccc(O)cc3)coc2c1 [3d, 3-(4-Hydroxyphenyl)-7-isopropoxychromen-4-one] was tested, and the inhibition at 25 µM [1] was greater than 60%.
Work on CCCCOc1ccc2c(=O)c(-c3ccc(O)cc3)coc2c1 [3e, 7-Butoxy-3-(4-hydroxyphenyl)chromen-4-one] yielded an inhibition at 25 µM [1] of less than 47%.
For CC(C)COc1ccc2c(=O)c(-c3ccc(O)cc3)coc2c1 [3f, 3-(4-Hydroxyphenyl)-7-isobutoxychromen-4-one], the inhibition at 25 µM [1] was greater than 60% and the “estrogenic (ERE) activity, in words” value [4] was “negligible ERE activity”.
For O=c1c(-c2ccc(O)cc2)coc2cc(OC3CCCC3)ccc12 [3g, 7-Cyclopentyloxy-3-(4-hydroxyphenyl)chromen-4-one], the inhibition at 25 µM [1] was greater than 60% and the “estrogenic (ERE) activity, in words” value [4] was “negligible ERE activity”.
Compound CCCCCCOc1ccc2c(=O)c(-c3ccc(O)cc3)coc2c1 [3h, 7-Hexyloxy-3-(4-hydroxyphenyl)chromen-4-one] has an inhibition at 25 µM [1] of less than 47%.
C[C@]12CC[C@@H]3c4ccc(O)cc4CC[C@H]3[C@@H]1CC[C@@H]2O [E2, 17β-estradiol, reference compound] was tested, and the “increase in PgR expression” value ([2]; MCF-7) was 5 fold and the “increase in clonogenicity of MCF-7 cells” value ([3]; 0.1 nM, vs DMSO treated controls) was “approximately 3 fold”.
C[C@]12CC[C@@H]3c4ccc(O)cc4C[C@@H](CCCCCCCCC[S+]([O-])CCCC(F)(F)C(F)(F)F)[C@H]3[C@@H]1CC[C@@H]2O (stereo partly drawn) [ICI 182,780] gave a tumor volume [5] of 130.95±23.49 mm3.
In the case of CC1(C)C=Cc2c(ccc3c(=O)c(-c4ccc(O)cc4)coc23)O1 [compound 2, 3-(4-Hydroxyphenyl)-8,8-dimethyl-8H-pyrano[2,3-f]chromen-4-one], the “blocking of ERE activity, in words” value ([1]; 25 μM plus 0.1 nM E2) is reported as “completely blocking ERE activity”, the “level of PgR expression” value [2] is reported as 3 fold and the “PgR expression compared with DMSO, in words” value ([2]; ligand only, MCF-7) is reported as “decrease in PgR expression”. For the same compound, the tumor volume ([6]; day 18, 50 mg/kg/animal/day IP for 14 days, control 188±18.78) was 91.11±10.15 mm^3, the “tumor volume vs control, in words” value ([6]; seven days after cell injection, three days' treatment) was “statistically less than those of control mice” and the tumor volume [5] was 241.53±68.29 mm3. For the same compound, the “clonogenicity in the presence of E2, in words” value ([3]; 10 μM plus 0.1 nM estradiol) was “inhibit the clonogenicity of MCF-7 cells completely”, the “cell clonogenicity, in words” value ([3]; 10 μM, without E2) was “completely blocked cell clonogenicity” and the inhibition at 1 µM ([3]; Homo sapiens, MCF7, read-out: inhibition of clonogenicity) was 15%. The “estrogenic (ERE) activity, in words” value [4] was “little or no estrogen activity; also recorded: negligible ERE activity”, the “effect on EGF-stimulated AKT and mTOR phosphorylation, in words” value ([7]; 10 μM 4 hours then EGF 50 ng/mL 30 minutes) was “significantly abrogate the effects of EGF stimulation on AKT and mTOR phosphorylation” and the “phospho-levels of AKT at S473 and T308, in words” value ([7]; 10 μM, 4 hours) was “significant decreases”. The “number of migrated cells compared to control (normalized to 100%)” value (shortened to “number … (normalized to 100%)”) [8] was 25.57%, the “number … (normalized to 100%)” value [9] was 0.08% and the “number … (normalized to 100%)” value [10] was 0%.
With O=c1c(-c2ccc(O)cc2)coc2cc(O)ccc12 [daidzein, reference compound] the “level of PgR expression” value [2] was 5 fold, the “increase in PgR expression” value ([2]; MCF-7) was 3 fold and the “increase in clonogenicity of MCF-7 cells” value ([3]; 1 μM, without E2, vs DMSO) was “over 3 fold”. The “increase in clonogenicity of MCF-7 cells” value ([3]; 10 μM, without E2, vs DMSO) was 2.5 times and the “estrogenic (ERE) activity, in words” value [4] was “more potent estrogenic activity than any of its derivatives”.
In the case of CC/C(=C(\c1ccccc1)c1ccc(OCCN(C)C)cc1)c1ccccc1 [tamoxifen], the tumor volume [5] is reported as 178.12±41.18 mm3.

Source: patent publication US9669004B2 (THE ADMINISTRATORS OF THE TULANE EDUCATIONAL FUND, priority 2010, dated 2017)
